target: T1, human IRAK4 (Homo sapiens, UniProt Q9NWZ3); test: IRAK4 MSA (Mobility-Shift Assay) at Km concentration of ATP; type: biochemical; details: GST-IRAK4 1 nM, ATP 37 μM (Km); read-out: IC50 for inhibiting human IRAK4 activity
T1 construct: purchased Cama (so in the source)
T1 sequence (Q9NWZ3 1-460): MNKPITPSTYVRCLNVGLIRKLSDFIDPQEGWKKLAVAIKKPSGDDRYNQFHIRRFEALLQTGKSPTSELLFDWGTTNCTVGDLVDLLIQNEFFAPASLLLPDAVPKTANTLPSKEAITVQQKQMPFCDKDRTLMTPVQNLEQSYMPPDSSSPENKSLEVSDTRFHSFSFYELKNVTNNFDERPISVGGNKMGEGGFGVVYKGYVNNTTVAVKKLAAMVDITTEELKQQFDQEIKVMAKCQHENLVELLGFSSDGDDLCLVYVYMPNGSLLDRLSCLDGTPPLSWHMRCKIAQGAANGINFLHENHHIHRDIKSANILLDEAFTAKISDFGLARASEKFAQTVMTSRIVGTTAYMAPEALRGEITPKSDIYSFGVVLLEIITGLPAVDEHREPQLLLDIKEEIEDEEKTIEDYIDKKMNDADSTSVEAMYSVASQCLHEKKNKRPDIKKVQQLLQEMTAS
Procedure: A recombinant fusion protein of N-terminal GST (glutathione-S-transferase) and human IRAK4 was used as enzyme (GST-IRAK4, kinase IRAK4 (Cama, CAT No. 09-145)) at a final concentration of 1 nM; ATP (Sigma. CAT No. A7699-1G) was at a final concentration of 37 μM; • the substrates used for the kinase reaction were 5-FAM (5-carboxyfluorescein)-labeled polypeptide (5-FAM-[…]-COOH) and substrate peptide FAM-P8 (GL Biochem, CAT No. 112396) at final concentrations of 5 μM.
In this assay, 500 μM stock solutions of the compounds were prepared in 100% DMSO, and serially 4-fold diluted to the 10th concentration gradient with 100% DMSO, followed by a 10-fold dilution in the compound buffer (50 mM HEPES, pH 7.5, 0.00015% Brij-35) to give intermediate dilutions of the compounds at a final concentration of 10 μM−0.04 nM containing 10% DMSO. 5 μL of the intermediate dilution was transferred into a black 384-well plate.
IRAK4 was diluted to 2.5 nM in the kinase buffer (50 mM HEPES, pH 7.5, 0.00015% Brij-35, 2 mM DTT). 10 μL of the IRAK4 dilution was transferred to the 384-well plate and co-incubated with the compound for 10-15 min.
The substrate and ATP were diluted to 12.5 μM and 92.5 μM with reaction buffer (50 mM HEPES, pH 7.5, 0.00015% Brij-35, 10 mM MgCl2), respectively. 10 μL of the dilution was transferred to a 384-well plate and incubated at 28° C. for 1 h. The reaction was terminated by adding 25 μL of 50 mM EDTA to the 384-well plate.
The inhibition rate of IRAK4 by the compounds was calculated by measuring the rate of phosphorylated substrate using a Caliper EZ Reader (PerkinElmer) and the IC50 was calculated by XL-fit software. […] In particular, some exemplary compound activity values are as follows: […]

Row | SMILES | IC50 [nM]
1 | COc1cc2nn([C@H]3CC[C@](C)(O)CC3)cc2cc1NC(=O)c1cccc(C2CC2)[n+]1[O-] [Compound 002, 2-cyclopropyl-6-((2-((1r,4r)-4-hydroxy-4-methylcyclohexyl)-6-methoxy-2H-indazol-5-yl)carbamoyl) Pyridine 1-oxide] | 3.7
2 | Cc1cccc(C(=O)Nc2cc3cn([C@H]4CC[C@](C)(O)CC4)nc3cc2N(C)C)[n+]1[O-] [Compound 010, 2-((6-(dimethylamino)-2-((1r,4r)-4-hydroxy-4-methylcyclohexyl)-2H-indazol-5-yl)carbamoyl)-6-methylpyridine 1-oxide] | 11
3 | COc1cc2nn([C@H]3CC[C@H](O)CC3)cc2cc1NC(=O)c1cccc(C(C)C)[n+]1[O-] [Compound 015, 2-((2-((1r,4r)-4-hydroxycyclohexyl)-6-methoxy-2H-indazol-5-yl)carbamoyl)-6-isopropylpyridine 1-oxide] | 5.4
4 | Cc1cccc(C(=O)Nc2cc3cn([C@H]4CC[C@H](O)CC4)nc3cc2OCC2CC2)[n+]1[O-] [Compound 019, 2-((6-(cyclopropylmethoxy)-2-((1r,4r)-4-hydroxycyclohexyl)-2H-indazol-5-yl)carbamoyl)-6-methylpyridine 1-oxide] | 8.1
5 | COc1cc2nn([C@H]3CC[C@@](O)(C4CC4)CC3)cc2cc1NC(=O)c1cccc(C)[n+]1[O-] [Compound 025, 2-((2-((1r,4r)-4-cyclopropyl-4-hydroxycyclohexyl)-6-methoxy-2H-indazol-5-yl)carbamoyl)-6-methylpyridine 1-oxide] | 13
6 | COc1cc2nn([C@H]3CC[C@@](O)(CC#N)CC3)cc2cc1NC(=O)c1cccc(C)[n+]1[O-] [Compound 175, 2-((2-((1r,4r)-4-(cyanomethyl)-4-hydroxycyclohexyl)-6-methoxy-2H-indazol-5-yl)carbamoyl)-6-methylpyridine 1-oxide] | 7.1
7 | COc1cc2nn([C@H]3CC[C@@](O)(CC#N)CC3)cc2cc1NC(=O)c1cccc(C2CC2)[n+]1[O-] [Compound 176, 2-((2-((1r,4r)-4-(cyanomethyl)-4-hydroxycyclohexyl)-6-methoxy-2H-indazol-5-yl)carbamoyl)-6-cyclopropylpyridine 1-oxide] | 4.3
8 | C#C[C@]1(O)CC[C@H](n2cc3cc(NC(=O)c4cccc(C)[n+]4[O-])c(OC)cc3n2)CC1 [Compound 187, 2-((2-((1r,4r)-4-ethynyl-4-hydroxycyclohexyl)-6-methoxy-2H-indazol-5-yl)carbamoyl)-6-methylpyridine 1-oxide] | 9.2
9 | COc1cc2nn([C@H]3CC[C@@H](O)CC3)cc2cc1NC(=O)c1cccc(C2CC2)[n+]1[O-] [Compound 218, 2-cyclopropyl-6-((2-((1s,4s)-4-hydroxycyclohexyl)-6-methoxy-2H-indazol-5-yl)carbamoyl)pyridine 1-oxide] | 8.3
10 | CCOc1cc2nn([C@H]3CC[C@@H](O)CC3)cc2cc1NC(=O)c1cccc(C)[n+]1[O-] [Compound 220, 2-((6-ethoxy-2-((1s,4s)-4-hydroxycyclohexyl)-2H-indazol-5-yl)carbamoyl)-6-methylpyridine 1-oxide] | 14
11 | COc1cc2nn(C3CCCC3)cc2cc1NC(=O)c1cccc(C)[n+]1[O-] [Compound 284, 2-((2-cyclopentyl-6-methoxy-2H-indazol-5-yl)carbamoyl)-6-methylpyridine 1-oxide] | 28
12 | COc1cc2nn(C3CCCCC3)cc2cc1NC(=O)c1cccc(C)[n+]1[O-] [Compound 285, 2-((2-cyclohexyl-6-methoxy-2H-indazol-5-yl)carbamoyl)-6-methylpyridine 1-oxide] | 5.9
13 | COc1cc2nn(C3CCC(F)(F)CC3)cc2cc1NC(=O)c1cccc(C)[n+]1[O-] [Compound 286, 2-((2-(4,4-difluorocyclohexyl)-6-methoxy-2H-indazol-5-yl)carbamoyl)-6-methylpyridine 1-oxide] | 14
14 | Cc1cccc(C(=O)Nc2cc3cn([C@H]4CC[C@@](C)(O)CC4)nc3cc2N(C)C)[n+]1[O-] [Compound 287, 2-((6-(dimethylamino)-2-((1s,4s)-4-hydroxy-4-methylcyclohexyl)-2H-indazol-5-yl)carbamoyl)-6-methylpyridine 1-oxide] | 13
15 | COc1cc2nn([C@H]3CC[C@@H](O)CC3)cc2cc1NC(=O)c1cccc(C(C)C)[n+]1[O-] [Compound 288, 2-((2-((1s,4s)-4-hydroxycyclohexyl)-6-methoxy-2H-indazol-5-yl)carbamoyl)-6-isopropylpyridine 1-oxide] | 13
16 | COc1cc2nn([C@H]3CC[C@](C)(O)CC3)cc2cc1NC(=O)c1cccc(NC2CC2)[n+]1[O-] [Compound 289, 2-(cyclopropylamino)-6-((2-((1r,4r)-4-hydroxy-4-methylcyclohexyl)-6-methoxy-2H-indazol-5-yl)carbamoyl)pyridine 1-oxide] | 1.7
17 | COc1cc2nn([C@H]3CC[C@](C)(C#N)CC3)cc2cc1NC(=O)c1cccc(C)[n+]1[O-] [Compound 291, 2-((2-((1r,4r)-4-cyano-4-methylcyclohexyl)-6-methoxy-2H-indazol-5-yl)carbamoyl)-6-methylpyridine 1-oxide] | 14
18 | Cc1cccc(C(=O)Nc2cc3cn([C@H]4CC[C@@H](O)CC4)nc3cc2OCC2CC2)[n+]1[O-] [Compound 292, 2-((6-(cyclopropylmethoxy)-2-((1s,4s)-4-hydroxycyclohexyl)-2H-indazol-5-yl)carbamoyl)-6-methylpyridine 1-oxide] | 14
19 | COc1cc2nn([C@H]3CC[C@](C)(O)CC3)cc2cc1NC(=O)c1cccc(C)n1 [Compound B, N-(2-((1r,4r)-4-hydroxy-4-methylcyclohexyl)-6-methoxy-2H-indazol-5-yl)-6-methylpicolinamide, reference compound] | 30

— patent US12617770B2, “IRAK inhibitor and preparation method therefor and use thereof” (WUHAN CREATERNA SCIENCE AND TECHNOLOGY CO., LTD., priority 2019, dated 2026)
